Data as given in paper PMC9744894, “An optimized antimicrobial peptide analog acts as an antibiotic adjuvant to reverse methicillin-resistant Staphylococcus aureus” (NPJ Science of Food, 2022).
Converted amounts (≈) assume the structure as drawn. Where two headings read alike, the source gives them in different places. No end group written: not given here.

How the values were obtained:
[1] = tested on: methicillin-resistant Staphylococcus aureus ATCC 43300
[2] = tested on: Escherichia coli CMCC44102
[3] = tested on: Escherichia coli CMCC 44817
[4] = tested on: Escherichia coli ATCC 8739
[5] = tested on: Shigalla Dysenteria CMCC 51252; conditions: CMCC 51252, 18 h
[6] = tested on: Bacillus cereus CMCC 63301
[7] = tested on: Bacillus pumilus CMCC 63202
[8] = tested on: Staphylococcus aureus ATCC 29213
[9] = tested on: Staphylococcus aureus CMCC 26003
[10] = tested on: Staphylococcus aureus ATCC 12600
[11] = tested on: Staphylococcus aureus ATCC 6538
MRSA (ATCC 43300) [12] = test: Killing kinetics / growth inhibition; type: cell-based, Staphylococcus aureus; conditions: PIS-A-1 1/4 MIC or APC 1/8 MIC alone; OD600, 37 °C
Protocol: Likewise, the killing kinetics of antimicrobial agents against bacteria was tested. Briefly, 100 μL of antimicrobial agents were diluted two-fold in 96-well plates. Then, 100 μL of bacterial inoculum (1.5 × 10^6 CFU mL^−1) was appended and incubated at 37 °C. At a fixed time, the OD600 value of each well in the plate was measured by using a microplate reader (SpectraMax i3, Molecular Devices, USA).

[13] = tested on: methicillin-resistant Staphylococcus aureus ATCC 43300; test: microbe, parasite or virus in culture; conditions: ATCC43300 / MRSA, 18 h
[14] = tested on: Salmonella enterica CMCC 50335; conditions: MHB, 37 °C, 18 h
Protocol: (§1) The minimum inhibitory concentration (MIC) was adopted to measure the antimicrobial spectrum of AMPs[42]. Specifically, experiments were executed by broth microdilution method in a 96-well plate (Corning) with an initial inoculum of 1.5 × 10^6 Colony-Forming units (CFU) mL^−1 in MHB based on Clinical and Laboratory Standards Institute (CLSI) guidelines. Inoculums were bacteria in the Mid-Logarithmic phase. To prevent edge effects, 96-well plates were placed in a constant temperature incubator (TSQ-280, Jianuo, China) at 37 °C. After 18 h of incubation, a microplate reader (SpectraMax i3, Molecular Devices, USA) was applied to determine the OD600 value of the plates. […] Simultaneously, the number of inactivated bacteria treated with different drugs was quantitatively determined by flow cytometry (BD Accuri C6 Plus, USA) combined with […] propidium iodide (PI, Thermo Fisher Scientific, USA)[43].

[15] = tested on: Shigella flexneri CMCC 51571; conditions: MHB, 37 °C, 18 h
Protocol: as §1

[16] = tested on: Shigella flexneri CMCC 51572; conditions: MHB, 37 °C, 18 h
Protocol: as §1

[17] = tested on: Shigella sonnei CMCC 51592; conditions: MHB, 37 °C, 18 h
Protocol: as §1

MRSA (ATCC 43300) [18] = conditions: chessboard with APC, MRSA ATCC 43300, 18 h; synergy defined as FIC index ≤ 0.5
Caco-2 cells = test: Cytotoxicity, MTT assay; conditions: Caco-2, MTT; 64 μg/mL (concentration for PIS-1 and PIS-3 implied by context); mean ± SD, n = 3
Protocol: Caco-2 cells cultured with RPMI 1640 medium (containing 10% FBS and 1% penicillin-streptomycin) were incubated in a humidified CO2 (5%) atmosphere. Next, trypsin-treated cells (0.25%) were seeded in 96-well plates at a density of 5,000 per well and incubated for 24 h. Finally, cell viability of each well with fresh medium was tested by MTT assay.

mouse blood cells = type: cell-based, mice
Protocol: Blood cells taken from mice (ICR, male, 30–35 g) were treated with different concentrations of AMPs for 1 h. Meanwhile, Triton X-100 (0.2%) and phosphate-buffered saline (PBS, 0.01 moL^−1, pH 7.4) were used as positive and negative controls, respectively. After the reaction was completed, the OD576 value of each tube sample was determined and the hemolysis rate was calculated using the formula below[44],[45]:1 Hemolysisrate(%)=[(OD576sample−OD576blank)/(OD576TritonX−100−OD576blank)]×100%

[19] = tested on: pepsin, papain, and trypsin; type: in vitro ADME; conditions: pH 7.4
Protocol: AMPs were exposed to proteases (including pepsin, papain, and trypsin) dissolved in PBS (pH 7.4) at 37 °C for 12 h. Subsequently, proteases in AMPs were inactivated by high-temperature treatment (95 °C, 5 min) and the activity of treated AMPs against MRSA (ATCC 43300) was determined. AMPs dissolved in PBS without proteases were used as controls.

## FIHHIFRGIVHAGRSIGRFLTG [PIS-3]
[1]; ATCC 43300, 18 h
  MIC: 32 µg/mL
[2]; CMCC44102, 18 h
  MIC: 16 µg/mL
[3]; CMCC 44817, 18 h
  MIC: 16 µg/mL
[4]; ATCC 8739, 18 h
  MIC: 8 µg/mL
[5]
  MIC: 32 µg/mL
[6]; CMCC 63301, 18 h
  MIC: 16 µg/mL
[7]; CMCC 63202, 18 h
  MIC: 16 µg/mL
[8]; ATCC 29213, 18 h
  MIC: 16 µg/mL
[9]; CMCC 26003, 18 h
  MIC: 32 µg/mL
[10]; ATCC 12600, 18 h
  MIC: 16 µg/mL
[11]; ATCC 6538, 18 h
  MIC: 16 µg/mL
MRSA N315; N315, 18 h
  MIC: 16 µg/mL

## CC1(C)S[C@@H]2[C@H](NC(=O)[C@H](N)c3ccccc3)C(=O)N2[C@H]1C(=O)O [APC, Ampicillin]
MRSA (ATCC 43300) [12]
  bactericidal activity in growth inhibition experiment, applied separately: no bactericidal activity
[13]
  MIC: 16 µg/mL (≈ 45.8 µM)

## FIHHIFRGIVHLGRSIGRFLTG [PIS-A-2]
[1]; ATCC 43300, 18 h
  MIC: 16 µg/mL

## GIVHAGRSIGRFLTG [PIS-A-7]
[1]; ATCC 43300, 18 h
  MIC: ≥64 µg/mL

## CN[C@H](CC(C)C)C(=O)N[C@H]1C(=O)N[C@@H](CC(N)=O)C(=O)N[C@H]2C(=O)N[C@H]3C(=O)N[C@H](C(=O)N[C@H](C(=O)O)c4cc(O)cc(O)c4-c4cc3ccc4O)[C@H](O)c3ccc(c(Cl)c3)Oc3cc2cc(c3O[C@@H]2O[C@H](CO)[C@@H](O)[C@H](O)[C@H]2O[C@H]2C[C@](C)(N)[C@H](O)[C@H](C)O2)Oc2ccc(cc2Cl)[C@H]1O [VAN, vancomycin]
[13]
  MIC: 0.25 µg/mL (≈ 0.173 µM)

## FIHHIFRGIVHVGRSIG [PIS-A-3]
[1]; ATCC 43300, 18 h
  MIC: 32 µg/mL

## FIHHIFRGIVHVGRS [PIS-A-4]
[1]; ATCC 43300, 18 h
  MIC: 32 µg/mL

## GIVHAG [PIS-A-6]
[1]; ATCC 43300, 18 h
  MIC: ≥64 µg/mL

## FFHHIFRGIVHVGKTIHRLVTG [PIS-1] [listing 1 of 2 here]
[14]
  MIC: 16 µg/mL
[15]
  MIC: 8 µg/mL
[16]
  MIC: 8 µg/mL
[17]
  MIC: 8 µg/mL
[1]; MRSA ATCC 43300, broth microdilution in MHB, 1.5 × 10^6 CFU mL^−1, 37 °C, 18 h, OD600
  MIC: 16 µg/mL
[2]; Escherichia coli CMCC44102, first listing in Supplementary table 1, MHB, 37 °C, 18 h
  MIC: 16 µg/mL
[2]; Escherichia coli CMCC 44102, second listing in Supplementary table 1, MHB, 37 °C, 18 h
  MIC: 4 µg/mL
[3]; Escherichia coli CMCC 44817, MHB, 37 °C, 18 h
  MIC: 16 µg/mL
[4]; Escherichia coli ATCC 8739, first listing in Supplementary table 1, MHB, 37 °C, 18 h
  MIC: 8 µg/mL
[4]; Escherichia coli ATCC 8739, second listing in Supplementary table 1, MHB, 37 °C, 18 h
  MIC: 8 µg/mL
[5]
  MIC: 16 µg/mL
[6]; Bacillus cereus CMCC 63301, MHB, 37 °C, 18 h
  MIC: 16 µg/mL
[7]; Bacillus pumilus CMCC 63202, MHB, 37 °C, 18 h
  MIC: 16 µg/mL
[8]; Staphylococcus aureus ATCC 29213, MHB, 37 °C, 18 h
  MIC: 8 µg/mL
[9]; Staphylococcus aureus CMCC 26003, MHB, 37 °C, 18 h
  MIC: 16 µg/mL
[10]; Staphylococcus aureus ATCC 12600, MHB, 37 °C, 18 h
  MIC: 8 µg/mL
[11]; Staphylococcus aureus ATCC 6538, MHB, 37 °C, 18 h
  MIC: 8 µg/mL
MRSA N315; MRSA N315, MHB, 37 °C, 18 h
  MIC: 8 µg/mL
Staphylococcus aureus; range over Staphylococcus aureus strains
  MIC against Staphylococcus aureus: 8~16 μg/mL
MRSA (ATCC 43300) [18]
  FIC (FIC index) with APC: 0.31

## FIHHIFRGIVHAG [PIS-A-5]
[1]; ATCC 43300, 18 h
  MIC: ≥64 µg/mL

## FFHHIFRGIVHVGKTIHRLVTG [PIS-1] [listing 2 of 2 here]
Caco-2 cells
  cell viability: 3.64 ± 0.79%

## FIHHIFRGIVHVGRSIGRFLTG [PIS-A-1]
[14]
  MIC: 16 µg/mL
[15]
  MIC: 8 µg/mL
[16]
  MIC: 16 µg/mL
[17]
  MIC: 16 µg/mL
Mouse blood cells
  hemolysis at its MIC: did not induce minimal hemolysis
Mouse blood cells; red cells of mouse, 1 h
  HC50 (minimum AMP concentration producing 50% hemolysis of red blood cells): 64 µg/mL
[19]
  resistance to enzymatic degradation (change of MIC against MRSA after protease treatment): least affected by enzymatic degradation
[1]; ATCC 43300, 18 h
  MIC: 8 µg/mL
[3]; CMCC 44817, 18 h
  MIC: 16 µg/mL
[4]; ATCC 8739, 18 h
  MIC: 8 µg/mL
[5]
  MIC: 16 µg/mL
[6]; CMCC 63301, 18 h
  MIC: 8 µg/mL
[7]; CMCC 63202, 18 h
  MIC: 16 µg/mL
[8]; ATCC 29213, 18 h
  MIC: 8 µg/mL
[9]; CMCC 26003, 18 h
  MIC: 16 µg/mL
[10]; ATCC 12600, 18 h
  MIC: 8 µg/mL
[11]; ATCC 6538, 18 h
  MIC: 8 µg/mL
MRSA N315; N315, 18 h
  MIC: 8 µg/mL
Staphylococcus aureus; 18 h
  MIC against Staphylococcus aureus: 8~16 μg/mL
MRSA (ATCC 43300) [18]
  FIC (FIC index) with APC: 0.19
